{
  "source": "patent US20090186761A1",
  "about": "“Use of bio-derived surfactants for mitigating damage to plants from pests” (Cleareso, LLC, priority 2008, published 2009)",
  "key": {"[1]": {"system": "M. javanica", "details": "tomato root galling; cited from earlier work"}, "[2]": {"system": "root weevil, Diaprepes abbreviatus", "experiment": "Root weevil larvae held 30 minutes in concentration series of compounds", "type": "in vivo", "details": "for Mortality of larvae: 30 minutes immersion, five larvae; for toxicity to larvae as judged: 0.1 to 5.0%, judged at 24 hours from black residue and activity", "procedure": "The criterion for toxicity with these larvae is the lack of nipping behavior and its consequent black residue from blood loss and the lack of spontaneous movement.\nConcentration Series. With the results from the time series above, larvae were held in different concentrations of STMB for 30 minutes. After 30 minutes, solutions were poured off and the trays wiped dry. Assessments were made at 24 or 48 hours with a few assessments at 72 hours dependent on effects. Treatments were: water or carbonated water as controls, and 0.1, 0.5, 1.0, 2.0, 3.0, 4.0 and 5.0% concentrations in either distilled water or carbonated water. Five larvae were used for each control and treatment. Pupae were not used in this assessment.\nThe use of carbonated water appeared not to increase the efficacy of this treatment. After 48 hours, there appeared to be no difference between 5% STMB in water and 5% STMB in carbonated water. […] In general, 48 hours should be enough for this assessment. Lack of toxicity or high toxicity should show in the first 24 hours."}, "[3]": {"system": "Meloidognye hapla", "details": "cited from earlier work; for kill of second stage juveniles: 50 ppm, 24 hours; for toxicity to nematodes: in vitro"}, "[4]": {"experiment": "Solubility of the test preparations in water (observations)", "type": "physicochemical"}},
  "data": [
    {"compound": "glycol pelargonate", "values": [
      {"measurement": "concentration producing reduced galling of plants", "setting": "[1]", "value": 6.4, "unit": "microliters/liter"}
    ]},
    {"compound": "COC(=O)CCCC(=O)OC", "note": "[1119-40-0, pentanedioic acid, dimethyl ester]", "values": [
      {"measurement": "Mortality of larvae", "setting": "[2]; 0.1%, 48 hours", "value": 3},
      {"measurement": "Mortality of larvae", "setting": "[2]; 0.1%, 72 hours", "value": 3},
      {"measurement": "Mortality of larvae", "setting": "[2]; 1.0%, 48 hours", "value": 1},
      {"measurement": "Mortality of larvae", "setting": "[2]; 1.0%, 72 hours", "value": 2},
      {"measurement": "Mortality of larvae", "setting": "[2]; 3.0%, 48 hours", "value": 0},
      {"measurement": "Mortality of larvae", "setting": "[2]; 3.0%, 72 hours", "value": 0},
      {"measurement": "Mortality of larvae", "setting": "[2]; 5.0%, 48 hours", "value": 1},
      {"measurement": "Mortality of larvae", "setting": "[2]; 5.0%, 72 hours", "value": 2},
      {"measurement": "survival of larvae after 30 minutes", "setting": "[2]; at end of 30 minutes immersion", "value": "All larvae were alive"}
    ]},
    {"compound": "CCCCCCCCC(=O)OC", "note": "[Methyl perlargonate]", "values": [
      {"measurement": "concentration producing reduced galling of plants", "setting": "[1]", "value": 0.8, "unit": "microliters/liter"}
    ]},
    {"compound": "CCCCCCCCCC(=O)O", "note": "[decanoic acid]", "values": [
      {"measurement": "kill of second stage juveniles", "setting": "[3]", "value": "killed all"}
    ]},
    {"compound": "COC(=O)CCCCC(=O)OC", "note": "[627-93-0, Dimethyl hexanedioate]", "values": [
      {"measurement": "Mortality of larvae", "setting": "[2]; 0.1%, 24 hours", "value": 2},
      {"measurement": "toxicity to larvae as judged", "setting": "[2]", "value": "non-toxic"},
      {"measurement": "Mortality of larvae", "setting": "[2]; 1.0%, 24 hours", "value": 1},
      {"measurement": "Mortality of larvae", "setting": "[2]; 3.0%, 24 hours", "value": 2},
      {"measurement": "Mortality of larvae", "setting": "[2]; 5.0%, 24 hours", "value": 3},
      {"measurement": "solubility of preparation", "setting": "[4]; 0.1% in water", "value": "soluble"},
      {"measurement": "solubility of preparation", "setting": "[4]; 1.0% in water", "value": "not completely soluble"},
      {"measurement": "solubility of preparation", "setting": "[4]; 3.0% in water", "value": "not completely soluble"},
      {"measurement": "solubility of preparation", "setting": "[4]; 5.0% in water", "value": "not completely soluble"}
    ]},
    {"compound": "CCCCCCCC/C=C\\CCCCCCCC(=O)[O-].[K+]", "note": "[potassium oleate]", "values": [
      {"measurement": "toxicity to nematodes", "setting": "[3]", "value": "relatively nontoxic"}
    ]},
    {"compound": "CCCCCCCC/C=C\\CCCCCCCC(=O)O", "note": "[Oleic acid]", "values": [
      {"measurement": "toxicity to nematodes", "setting": "[3]", "value": "relatively nontoxic"}
    ]},
    {"compound": "COC(=O)CCC(=O)OC", "note": "[106-65-0, butanedioic acid, dimethyl ester]", "values": [
      {"measurement": "Mortality of larvae", "setting": "[2]; 0.1%, 24 hours", "value": 2},
      {"measurement": "toxicity to larvae as judged", "setting": "[2]", "value": "non-toxic"},
      {"measurement": "Mortality of larvae", "setting": "[2]; 1.0%, 24 hours", "value": 2},
      {"measurement": "Mortality of larvae", "setting": "[2]; 3.0%, 24 hours", "value": 1},
      {"measurement": "Mortality of larvae", "setting": "[2]; 5.0%, 24 hours", "value": 1},
      {"measurement": "solubility of preparation", "setting": "[4]; 0.1% in water", "value": "soluble"},
      {"measurement": "solubility of preparation", "setting": "[4]; 1.0% in water", "value": "just soluble"},
      {"measurement": "solubility of preparation", "setting": "[4]; 3.0% in water", "value": "not soluble"},
      {"measurement": "solubility of preparation", "setting": "[4]; 5.0% in water", "value": "not soluble"}
    ]},
    {"compound": "Polyoxyethylene 10 tridecylether [24938-91-8]", "values": [
      {"measurement": "Mortality of larvae", "setting": "[2]; 0.1%, 24 hours", "value": 0},
      {"measurement": "Mortality of larvae", "setting": "[2]; 0.1%, 48 hours", "value": 0},
      {"measurement": "Mortality of larvae", "setting": "[2]; 0.1%, 72 hours", "value": 0},
      {"measurement": "Mortality of larvae", "setting": "[2]; 1.0%, 24 hours", "value": 2},
      {"measurement": "Mortality of larvae", "setting": "[2]; 1.0%, 48 hours", "value": 2},
      {"measurement": "Mortality of larvae", "setting": "[2]; 1.0%, 72 hours", "value": 2},
      {"measurement": "Mortality of larvae", "setting": "[2]; 3.0%, 24 hours", "value": 0},
      {"measurement": "Mortality of larvae", "setting": "[2]; 3.0%, 48 hours", "value": 0},
      {"measurement": "Mortality of larvae", "setting": "[2]; 3.0%, 72 hours", "value": 0},
      {"measurement": "Mortality of larvae", "setting": "[2]; 5.0%, 24 hours", "value": 0},
      {"measurement": "Mortality of larvae", "setting": "[2]; 5.0%, 48 hours", "value": 3},
      {"measurement": "Mortality of larvae", "setting": "[2]; 5.0%, 72 hours", "value": 3}
    ]},
    {"compound": "CCCCCCCCCCC(=O)O", "note": "[undecanoic acid]", "values": [
      {"measurement": "kill of second stage juveniles", "setting": "[3]", "value": "killed all"}
    ]}
  ]
}
